The source of these data is US10336762B2 (priority 2017, dated 2019).

Some results are limits rather than exact numbers.

The target in one experiment is IRAK4 enzyme (Homo sapiens (Human), UniProt Q9NWZ3). Nature of the experiment: biochemical. In kind it is biochemical. The settings on record: IRAK4 enzyme, 500 μM ATP.
A further experiment relates to TNFα. Nature of the experiment: cells. The settings on record: Homo sapiens, Monocyte, LPS-stimulated human monocytes, TNFα content; read-out: EC50 TNF. The class given is cell-based, human.

Chain of IRAK4 enzyme (Q9NWZ3 whole entry): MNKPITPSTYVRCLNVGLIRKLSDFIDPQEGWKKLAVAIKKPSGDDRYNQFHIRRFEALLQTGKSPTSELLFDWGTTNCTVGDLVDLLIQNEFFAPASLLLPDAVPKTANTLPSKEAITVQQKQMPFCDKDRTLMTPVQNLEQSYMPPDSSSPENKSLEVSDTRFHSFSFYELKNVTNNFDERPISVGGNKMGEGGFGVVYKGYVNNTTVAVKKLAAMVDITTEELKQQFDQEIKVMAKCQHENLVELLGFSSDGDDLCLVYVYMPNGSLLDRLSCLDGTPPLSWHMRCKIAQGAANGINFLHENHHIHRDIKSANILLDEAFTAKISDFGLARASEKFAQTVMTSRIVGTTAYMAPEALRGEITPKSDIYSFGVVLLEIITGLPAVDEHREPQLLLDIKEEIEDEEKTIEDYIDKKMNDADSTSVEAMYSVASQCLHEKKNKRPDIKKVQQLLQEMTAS

At IRAK4 enzyme (TR-FRET), `N#Cc1cnn2c(-c3cc(N[C@H]4CC[C@H](N5CCOC5=O)CC4)c(C(=O)NCC(N)=O)cn3)ccc2c1` [Example 390, N-(2-amino-2-oxoethyl)-6-(3-cyanopyrrolo[1,2-b]pyridazin-7-yl)-4-(((1r,4r)-4-(2-oxooxazolidin-3-yl)cyclohexyl)amino) nicotinamide] had an IC50 of 6 nM. Moreover, in the experiment with TNFα, the 50% effective concentration (EC50) is > 10000 nM.

As to `N#CCNC(=O)c1cnc(-c2ccc3cc(C#N)cnn23)cc1N[C@H]1CC[C@H](N2CCOC2=O)CC1` [Example 391, N-(cyanomethyl)-6-(3-cyanopyrrolo[1,2-b]pyridazin-7-yl)-4-(((1r,4r)-4-(2-oxooxazolidin-3-yl)cyclohexyl)amino) nicotinamide], the IC50 against IRAK4 enzyme (TR-FRET) is < 1 nM. The EC50 in the experiment on TNFα was found to be 33 nM.

On to `CC(C)(O)[C@H](F)CNC(=O)c1cnc(-c2ccc3cc(C#N)cnn23)cc1N[C@H]1CC[C@H](N2CCOC2=O)CC1` [Example 392, 6-(3-cyanopyrrolo[1,2-b]pyridazin-7-yl)-N-((R)-2-fluoro-3-hydroxy-3-methylbutyl)-4-(((1r,4R)-4-(2-oxooxazolidin-3-yl)cyclohexyl)amino) nicotinamide], for which, at IRAK4 enzyme (TR-FRET), the IC50 was < 1 nM. The EC50 in the experiment with TNFα turned out to be 50 nM.

`CC(C)(O)[C@H](F)CNC(=O)c1cnc(-c2ccc3cc(C#N)cnn23)cc1NC12CCC(C(=O)N3CC(C(F)F)C3)(CC1)CC2` [Example 393, (R)-6-(3-cyanopyrrolo[1,2-b]pyridazin-7-yl)-4-((4-(3-(difluoromethyl)azetidine-1-carbonyl)bicyclo[2.2.2]octan-1-yl)amino)-N-(2-fluoro-3-hydroxy-3-methylbutyl)nicotinamide]: the IC50 on IRAK4 enzyme (TR-FRET) is < 1 nM. The EC50 with TNFα stood at 44 nM.

Take `CC1(F)CN(C(=O)C23CCC(Nc4cc(-c5ccc6cc(C#N)cnn56)ncc4C(=O)NC[C@@H](F)C(C)(C)O)(CC2)CC3)C1` [Example 394, (R)-6-(3-cyanopyrrolo[1,2-b]pyridazin-7-yl)-N-(2-fluoro-3-hydroxy-3-methylbutyl)-4-((4-(3-fluoro-3-methylazetidine-1-carbonyl)bicyclo[2.2.2]octan-1-yl)amino) nicotinamide]: at IRAK4 enzyme (TR-FRET), the IC50 was found to be 1 nM. Also, in the experiment on TNFα, the EC50 came to 68 nM.

As to `CC(C)(O)[C@H](F)CNC(=O)c1cnc(-c2ccc3cc(C#N)cnn23)cc1NC12CCC(C(=O)N3CCN(C4COC4)CC3)(CC1)CC2` [Example 395, (R)-6-(3-cyanopyrrolo[1,2-b]pyridazin-7-yl)-N-(2-fluoro-3-hydroxy-3-methylbutyl)-4-((4-(4-(oxetan-3-yl)piperazine-1-carbonyl)bicyclo[2.2.2]octan-1-yl)amino) nicotinamide], at IRAK4 enzyme (TR-FRET), the IC50 came to 3 nM. Also, the EC50 in the experiment on TNFα was 256 nM.

At IRAK4 enzyme (TR-FRET), `COC1CN(C(=O)C23CCC(Nc4cc(-c5ccc6cc(C#N)cnn56)ncc4C(=O)NC[C@@H](F)C(C)(C)O)(CC2)CC3)C1` [Example 396, (R)-6-(3-cyanopyrrolo[1,2-b]pyridazin-7-yl)-N-(2-fluoro-3-hydroxy-3-methylbutyl)-4-((4-(3-methoxyazetidine-1-carbonyl)bicyclo[2.2.2]octan-1-yl)amino) nicotinamide] registered an IC50 of 1 nM. For the same compound, in the experiment with TNFα, the EC50 stood at 24 nM.

As to `COCCNC(=O)C12CCC(Nc3cc(-c4ccc5cc(C#N)cnn45)ncc3C(=O)NC[C@@H](F)C(C)(C)O)(CC1)CC2` [Example 397, (R)-6-(3-cyanopyrrolo[1,2-b]pyridazin-7-yl)-N-(2-fluoro-3-hydroxy-3-methylbutyl)-4-((4-((2-methoxyethyl)carbamoyl)bicyclo[2.2.2]octan-1-yl)amino)nicotinamide], at IRAK4 enzyme (TR-FRET (HTRF)), it took 1 nM to reach half-maximal inhibition (IC50). Besides, in the experiment with TNFα, the EC50 worked out at 30 nM.

As for `CC(C)(O)[C@H](F)CNC(=O)c1cnc(-c2ccc3cc(C#N)cnn23)cc1NC12CCC(C(N)=O)(CC1)CC2` [Example 398, (R)-4-((4-carbamoylbicyclo[2.2.2]octan-1-yl)amino)-6-(3-cyanopyrrolo[1,2-b]pyridazin-7-yl)-N-(2-fluoro-3-hydroxy-3-methyl-butyl)nicotinamide], the IC50 on IRAK4 enzyme (TR-FRET (HTRF)) is < 1 nM. Also, the EC50 with TNFα stood at 17 nM.

As to `CC(C)(O)[C@H](F)CNC(=O)c1cnc(-c2ccc3cc(C#N)cnn23)cc1NC12CCC(N3CCOC3=O)(CC1)CC2` [Example 399, 6-(3-cyanopyrrolo[1,2-b]pyridazin-7-yl)-N-((R)-2-fluoro-3-hydroxy-3-methylbutyl)-4-((4-(2-oxooxazolidin-3-yl)bicyclo[2.2.2]octan-1-yl)amino)nicotinamide], on IRAK4 enzyme (TR-FRET (HTRF)), the IC50 was < 1 nM. The EC50 in the experiment with TNFα was 8 nM.

`CC(C)(O)[C@H](F)CNC(=O)c1cnc(-c2ccc3cc(C#N)cnn23)cc1NC12CCC(C(=O)N3CC(F)C3)(CC1)CC2` [Example 400, (R)-6-(3-cyanopyrrolo[1,2-b]pyridazin-7-yl)-N-(2-fluoro-3-hydroxy-3-methylbutyl)-4-((4-(3-fluoroazetidine-1-carbonyl)bicyclo[2.2.2]octan-1-yl)amino) nicotinamide] registered an IC50 at IRAK4 enzyme (TR-FRET (HTRF)) of 1 nM. Also, the EC50 with TNFα was found to be 21 nM.

At IRAK4 enzyme (TR-FRET (HTRF)), `CC(C)(O)[C@H](F)CNC(=O)c1cnc(-c2ccc3cc(C#N)cnn23)cc1NC12CCC(C(=O)N3CCOCC3)(CC1)CC2` [Example 401, (R)-6-(3-cyanopyrrolo[1,2-b]pyridazin-7-yl)-N-(2-fluoro-3-hydroxy-3-methylbutyl)-4-((4-(morpholine-4-carbonyl)bicyclo[2.2.2]octan-1-yl)amino)nicotinamide] displayed an IC50 of 2 nM. Also, the EC50 in the experiment with TNFα came out at 65 nM.

`N#Cc1cnn2c(-c3cc(NC45CCC(O)(CC4)CC5)c(C(=O)NC45CCC(O)(CC4)CC5)cn3)ccc2c1` [Example 402, 6-(3-cyanopyrrolo[1,2-b]pyridazin-7-yl)-N-(4-hydroxybicyclo[2.2.2]octan-1-yl)-4-((4-hydroxy-bicyclo[2.2.2]octan-1-yl)amino)nicotinamide] showed an IC50 at IRAK4 enzyme (TR-FRET (HTRF)) of 2 nM. The EC50 in the experiment with TNFα turned out to be 77 nM.

`CC(C)(O)[C@H](F)CNC(=O)c1cnc(-c2ccc3cc(C#N)cnn23)cc1NC12CCC(O)(CC1)C2` [Example 403, (R)-6-(3-cyanopyrrolo[1,2-b]pyridazin-7-yl)-N-(2-fluoro-3-hydroxy-3-methylbutyl)-4-((4-hydroxybicyclo[2.2.1]heptan-1-yl)amino) nicotinamide]: at IRAK4 enzyme (TR-FRET (HTRF)), the IC50 is < 1 nM. Moreover, the EC50 in the experiment with TNFα came out at 14 nM.

Compound `[2H]C([2H])([2H])N(C(=O)C12CCC(Nc3cc(-c4ccc5cc(C#N)cnn45)ncc3C(=O)NC[C@@H](F)C(C)(C)O)(CC1)CC2)C([2H])([2H])[2H]` [Example 404, (R)-4-((4-(bis(methyl-d3)carbamoyl)bicyclo[2.2.2]octan-1-yl)amino)-6-(3-cyanopyrrolo[1,2-b]pyridazin-7-yl)-N-(2-fluoro-3-hydroxy-3-methylbutyl)nicotinamide] displayed an IC50 against IRAK4 enzyme (TR-FRET (HTRF)) of 1 nM. Besides, the EC50 in the experiment on TNFα was found to be 11 nM.

Regarding `CC(C)(O)[C@H](F)CNC(=O)c1cnc(-c2ccc3cc(C#N)cnn23)cc1NC12CCC(N3CCC3=O)(CC1)CC2` [Example 405, 6-(3-cyanopyrrolo[1,2-b]pyridazin-7-yl)-N-((R)-2-fluoro-3-hydroxy-3-methylbutyl)-4-((4-(2-oxoazetidin-1-yl)bicyclo[2.2.2]octan-1-yl)amino)nicotinamide], the half-maximal inhibitory concentration (IC50) against IRAK4 enzyme (TR-FRET (HTRF)) is 1 nM. Besides, the EC50 in the experiment on TNFα stood at 12 nM.

For the compound `CC(C)(O)[C@H](F)CNC(=O)c1cnc(-c2ccc3cc(C#N)cnn23)cc1NC12CCC(C(=O)NC3CC3)(CC1)CC2` [Example 406, (R)-6-(3-cyanopyrrolo[1,2-b]pyridazin-7-yl)-4-((4-(cyclopropylcarbamoyl)bicyclo[2.2.2]octan-1-yl)amino)-N-(2-fluoro-3-hydroxy-3-methylbutyl) nicotinamide], the half-maximal inhibitory concentration (IC50) against IRAK4 enzyme (TR-FRET (HTRF)) worked out at 1 nM. The EC50 with TNFα is 33 nM.

On IRAK4 enzyme (TR-FRET (HTRF)), `CCNC(=O)C12CCC(Nc3cc(-c4ccc5cc(C#N)cnn45)ncc3C(=O)NC[C@@H](F)C(C)(C)O)(CC1)CC2` [Example 407, (R)-6-(3-cyanopyrrolo[1,2-b]pyridazin-7-yl)-4-((4-(ethyl-carbamoyl)bicyclo[2.2.2]octan-1-yl)amino)-N-(2-fluoro-3-hydroxy-3-methylbutyl)nicotinamide] returned an IC50 of 2 nM. In the experiment with TNFα, the EC50 is 20 nM.

Take `CC(C)(O)[C@H](F)CNC(=O)c1cnc(-c2ccc3cc(C#N)cnn23)cc1NC12CCC(C(=O)N3CCC3)(CC1)CC2` [Example 408, (R)-4-((4-(azetidine-1-carbonyl)bicyclo[2.2.2]octan-1-yl)amino)-6-(3-cyanopyrrolo[1,2-b]pyridazin-7-yl)-N-(2-fluoro-3-hydroxy-3-methylbutyl)nicotinamide]: the IC50 on IRAK4 enzyme (TR-FRET (HTRF)) is 1 nM. Also, in the experiment on TNFα, the EC50 was determined as 31 nM.

For the compound `CC(C)(O)[C@H](F)CNC(=O)c1cnc(-c2ccc3cc(C#N)cnn23)cc1NC12CCC(C(=O)N3CC(F)(F)C3)(CC1)CC2` [Example 409, (R)-6-(3-cyanopyrrolo[1,2-b]pyridazin-7-yl)-4-((4-(3,3-difluoroazetidine-1-carbonyl)bicyclo[2.2.2]octan-1-yl)amino)-N-(2-fluoro-3-hydroxy-3-methylbutyl)nicotinamide], the midpoint of inhibition on IRAK4 enzyme (TR-FRET (HTRF)), the IC50, lay at 1 nM. Also, the EC50 in the experiment with TNFα stood at 17 nM.

For `CC(C)(O)[C@H](F)CNC(=O)c1cnc(-c2ccc3cc(C#N)cnn23)cc1NC12CCC(C(=O)NC34CC(C3)C4)(CC1)CC2` [Example 410, (R)-4-((4-(bicyclo[1.1.1]pentan-1-ylcarbamoyl)bicyclo[2.2.2]octan-1-yl)amino)-6-(3-cyano-pyrrolo[1,2-b]pyridazin-7-yl)-N-(2-fluoro-3-hydroxy-3-methylbutyl) nicotinamide], on IRAK4 enzyme (TR-FRET (HTRF)), the IC50 was determined as 2 nM. Besides, the EC50 in the experiment on TNFα amounted to 50 nM.

Regarding `CN(C)C(=O)OC12CCC(Nc3cc(-c4ccc5cc(C#N)cnn45)ncc3C(=O)NC[C@@H](F)C(C)(C)O)(CC1)CC2` [Example 411, (R)-4-((2-(3-cyano-pyrrolo[1,2-b]pyridazin-7-yl)-5-((2-fluoro-3-hydroxy-3-methylbutyl)carbamoyl)pyridin-4-yl)amino)bicyclo[2.2.2] octan-1-yl dimethylcarbamate], on IRAK4 enzyme (TR-FRET (HTRF)), inhibition was half-maximal at 2 nM (IC50). The EC50 in the experiment with TNFα stood at 62 nM.
